The structures appear in SMILES notation.

IC50 data for 6 molecules are collected here from patent publication US7238813B2, “Chemical compounds” (Smithkline Beecham Corporation, priority 2000, dated 2007).

Assay [1] deals with Recombinant GST-Tie2 (Homo sapiens, UniProt Q02763). The experiment in a line: Tie2 fluorescence polarization kinase activity assay (TIE2-FP). It counts as biochemical. To be noted: starred examples, 200 μM ATP, read-out: TIE2-E (Tie-2 activities run utilizing Tie2-FP assay). As for the experimental part: Tie2 Fluorescence Polarization Kinase Activity Assay: (TIE2-FP)
Sequence of Recombinant GST-Tie2 (Q02763 23-1124): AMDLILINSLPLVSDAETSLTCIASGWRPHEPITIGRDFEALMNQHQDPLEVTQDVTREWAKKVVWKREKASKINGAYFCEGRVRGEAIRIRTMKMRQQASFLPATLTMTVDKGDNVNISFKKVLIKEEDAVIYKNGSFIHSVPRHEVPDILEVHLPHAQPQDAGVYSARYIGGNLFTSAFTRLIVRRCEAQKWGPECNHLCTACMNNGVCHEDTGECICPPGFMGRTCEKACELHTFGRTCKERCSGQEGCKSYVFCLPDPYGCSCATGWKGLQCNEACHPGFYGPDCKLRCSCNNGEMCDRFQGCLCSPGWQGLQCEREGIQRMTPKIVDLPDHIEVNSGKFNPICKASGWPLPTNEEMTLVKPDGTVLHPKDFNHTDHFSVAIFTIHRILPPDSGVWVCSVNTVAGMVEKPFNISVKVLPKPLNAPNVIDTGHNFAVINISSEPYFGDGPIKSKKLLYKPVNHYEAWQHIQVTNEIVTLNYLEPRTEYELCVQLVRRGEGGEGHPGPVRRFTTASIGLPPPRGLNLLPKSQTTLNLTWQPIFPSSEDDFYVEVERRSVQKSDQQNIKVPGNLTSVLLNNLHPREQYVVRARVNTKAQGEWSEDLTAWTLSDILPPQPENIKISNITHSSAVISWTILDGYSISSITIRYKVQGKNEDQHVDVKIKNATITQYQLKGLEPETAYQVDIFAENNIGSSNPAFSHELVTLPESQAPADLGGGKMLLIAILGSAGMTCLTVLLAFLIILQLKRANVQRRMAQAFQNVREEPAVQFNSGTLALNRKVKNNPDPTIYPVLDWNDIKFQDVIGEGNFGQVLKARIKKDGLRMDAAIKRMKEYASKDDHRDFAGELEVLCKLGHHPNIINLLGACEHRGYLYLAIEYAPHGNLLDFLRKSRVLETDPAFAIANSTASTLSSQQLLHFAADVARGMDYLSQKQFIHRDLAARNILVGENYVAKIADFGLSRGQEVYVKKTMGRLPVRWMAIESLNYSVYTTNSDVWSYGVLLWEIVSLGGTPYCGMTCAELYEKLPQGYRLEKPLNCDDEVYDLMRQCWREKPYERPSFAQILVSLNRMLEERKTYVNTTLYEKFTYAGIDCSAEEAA
Activation of Recombinant Tie2 Activation:
Recombinant GST-Tie2 was activated by incubating the enzyme in 20 mM Tris-HCl, pH 7.5, 12 mM MgCl2, 100 mM NaCl, 20 μM sodium vanidate, 1 mM DTT and 300 μM ATP at room temperature for 2 hours. The activation mixture was then passed through a NAP-25 desalting column (Pharmacia Biotech cat. no. 17-0852-02) to remove the free ATP. The activated enzyme was stored as aliquots at −80° C. in 20 mM Tris-HCl, pH 7.5 and 100 mM NaCl.
The final assay conditions were 50 mM HEPES, pH 7.5, 5% DMSO (when screening compounds), 200 μM ATP, 5 mM MgCl2, 1 mM DTT, 50 μM sodium vanidate, 1 nM activated enzyme, and 200 μM peptide. IC50's of compounds were measured under subsaturating ATP (200 μM) and varing concentrations of activated Tie2 and peptide substrate ([…]-OH; MW 1873 Da, TFA salt). Panvera Antiphosphotyrosine antibody (Cat#P2840) and PTK Green Tracer (Cat#P2842) were used to detect the phosphorylated peptide. Polarization was measured on a TECAN Polarion in 138-second cycles for 30 minutes at room temperature. IC50's were then determined from the % polarization using normal calculation methods.
A general note: In fluorescence polarisation assays a small probe gives low polarisation when free and higher when bound to something large.

Assay [2] concerns the target T1, GST-VEGFR2 (Homo sapiens, UniProt P35968).
T1 construct: GST-VEGFR2, baculovirus expressed recombinant constructs of the intracellular domains of human TIE2 tagged by GST; made in house
In words: VEGF-R2 enzyme assay (VEGF-E), LANCE method. To be noted: 75 μM ATP. It is filed as biochemical.

T1 sequence (P35968 786-1356 limits assumed): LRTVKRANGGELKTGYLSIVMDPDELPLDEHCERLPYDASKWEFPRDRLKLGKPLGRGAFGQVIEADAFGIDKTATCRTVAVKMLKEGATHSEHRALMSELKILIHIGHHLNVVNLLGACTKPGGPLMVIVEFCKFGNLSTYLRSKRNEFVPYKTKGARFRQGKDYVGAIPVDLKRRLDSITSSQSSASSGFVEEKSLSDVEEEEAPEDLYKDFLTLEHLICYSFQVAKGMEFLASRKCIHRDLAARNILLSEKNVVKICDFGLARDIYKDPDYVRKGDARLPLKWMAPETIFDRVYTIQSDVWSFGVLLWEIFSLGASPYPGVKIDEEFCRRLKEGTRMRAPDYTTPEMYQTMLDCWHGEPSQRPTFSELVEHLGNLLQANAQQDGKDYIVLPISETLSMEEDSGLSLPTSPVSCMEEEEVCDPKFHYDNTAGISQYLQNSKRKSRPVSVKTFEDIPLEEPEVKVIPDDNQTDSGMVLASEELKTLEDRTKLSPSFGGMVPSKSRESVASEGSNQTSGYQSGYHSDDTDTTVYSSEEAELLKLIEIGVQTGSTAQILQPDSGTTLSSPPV

Take `COCCOCC(=O)Nc1nc2cc(Oc3ccc(NC(=O)Nc4nccs4)cc3)ccc2[nH]1` [Example 151, N-(5-(4-((Thiazol-2-yl)aminocarbonylamino)phenoxy)-1H-benzimidazol-2-yl)(2-(methoxy)ethoxy)acetamide]: the IC50 fell in the range of 1000 to 10000 nM in assay [1] and 100 to 1000 nM in assay [2].

Consider `COCCOCC(=O)Nc1nc2cc(Oc3ccc(NC(=O)Nc4nc(C)cs4)cc3)ccc2[nH]1` [Example 153, N-(5-(4-((4-Methylthiazol-2-yl)aminocarbonylamino)phenoxy)-1H-benzimidazol-2-yl)(2-(methoxy)ethoxy)acetamide], for which the IC50 in assay [1] fell in the range of 1000 to 10000 nM; in assay [2], 100 to 1000 nM.

Consider `COCCOCC(=O)Nc1nc2cc(Oc3ccc(NC(=O)Nc4nnc(C(C)(C)C)s4)cc3)ccc2[nH]1` [Example 159, N-(5-(4-((5-tert-Butyl-1,3,4-thiadiazol-2-yl)aminocarbonylamino)phenoxy)-1H-benzimidazol-2-yl)(2-(methoxy)ethoxy)acetamide], for which the IC50 in assay [1] and in assay [2] was below 100 nM in each case.

`CC(=O)Nc1nc2cc(Oc3ccc(NC(=O)Nc4nc(C(C)(C)C)cs4)cc3)ccc2[nH]1` [Example 146, N-(5-(4-((4-tert-Butylthiazol-2-yl)aminocarbonylamino)phenoxy)-1H-benzimidazol-2-yl)acetamide]: the IC50 was 100 to 1000 nM in assay [1] and below 100 nM in assay [2].

For the molecule `COCCOCC(=O)Nc1nc2cc(Oc3ccc(NC(=O)Nc4nncs4)cc3)ccc2[nH]1` [Example 152, N-(5-(4-((1,3,4-Thiadiazol-2-yl)aminocarbonylamino)phenoxy)-1H-benzimidazol-2-yl)(2-(methoxy)ethoxy)acetamide], the IC50 in assay [1] and in assay [2] was 1000 to 10000 nM in each case.

As to `CCc1nnc(NC(=O)Nc2ccc(Oc3ccc4[nH]c(NC(=O)COCCOC)nc4c3)cc2)s1` [Example 156, N-(5-(4-((5-Ethyl-1,3,4-thiadiazol-2-yl)aminocarbonylamino)phenoxy)-1H-benzimidazol-2-yl)(2-(methoxy)ethoxy)acetamide], the IC50 in assay [1] was 100 to 1000 nM; in assay [2] it was below 100 nM.
